For orientation: EC50 means the midpoint of the concentration-response curve.

Our source for the EC50 values is patent US20200131142A1, “FARNESOID X RECEPTOR AGONISTS AND USES THEREOF” (Metacrine, Inc., priority 2017, published 2020).

The experiment addresses T1, hFXR (Homo sapiens, UniProt Q96RI1).
T1 construct: expressed in transfected cells; host or cells: CV-1 cells
T1 sequence (Q96RI1 1-486): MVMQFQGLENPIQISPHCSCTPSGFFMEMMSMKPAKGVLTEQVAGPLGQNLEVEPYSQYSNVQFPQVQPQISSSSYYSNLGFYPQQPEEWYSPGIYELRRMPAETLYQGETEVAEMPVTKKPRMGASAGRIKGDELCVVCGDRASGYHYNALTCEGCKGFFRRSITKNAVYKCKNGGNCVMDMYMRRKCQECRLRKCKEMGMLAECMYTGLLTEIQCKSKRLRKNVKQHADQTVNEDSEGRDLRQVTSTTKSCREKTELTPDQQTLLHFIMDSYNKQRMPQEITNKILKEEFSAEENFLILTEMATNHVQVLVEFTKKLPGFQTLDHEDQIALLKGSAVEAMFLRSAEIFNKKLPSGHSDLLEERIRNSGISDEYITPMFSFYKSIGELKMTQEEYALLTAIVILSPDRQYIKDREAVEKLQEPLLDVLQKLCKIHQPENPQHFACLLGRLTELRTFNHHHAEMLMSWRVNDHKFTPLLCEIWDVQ
T1 sequence (P19793 1-462 partner): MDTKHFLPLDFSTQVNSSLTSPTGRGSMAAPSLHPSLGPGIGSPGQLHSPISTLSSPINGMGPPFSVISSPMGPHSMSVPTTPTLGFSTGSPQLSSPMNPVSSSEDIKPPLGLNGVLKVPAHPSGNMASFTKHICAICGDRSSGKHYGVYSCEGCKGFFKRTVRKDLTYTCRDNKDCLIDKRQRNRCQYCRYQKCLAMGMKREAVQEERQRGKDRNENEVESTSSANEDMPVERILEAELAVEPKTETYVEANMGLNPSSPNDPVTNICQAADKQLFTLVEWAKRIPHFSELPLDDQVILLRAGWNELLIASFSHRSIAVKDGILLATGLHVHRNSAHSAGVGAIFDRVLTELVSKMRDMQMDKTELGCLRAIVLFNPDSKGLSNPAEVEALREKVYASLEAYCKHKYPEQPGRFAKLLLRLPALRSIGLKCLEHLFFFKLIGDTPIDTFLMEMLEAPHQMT
Kind of experiment: In Vitro FXR Assay (TK): hFXR/hRXR TK-ECRE-luc reporter in transfected CV-1 cells. The experiment is classed as cell-based. Conditions: 18 hrs incubation, luminescence, compounds with maximum efficacy <25% of the Fexarmine control classified as '+'. Put shortly:
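CV-1 cells transiently cotransfected with hFXR, hRXR, TK-ECRE-luc reporter and pCMX-YFP plasmids in charcoal-stripped serum medium. Serially diluted compounds added for 18 h at 37° C., then cells lysed and luciferase luminescence measured.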

Bounds are passed on as bounds.

With `COc1ccc([C@H]2CC[C@H](CN(c3cccc(-c4cnc(N5CCOCC5)s4)c3)C(=O)[C@H]3CC[C@H](O)CC3)CC2)cc1C` [Compound 7.15, trans-4-Hydroxy-N-((trans-4-(4-methoxy-3-methylphenyl)cyclohexyl)methyl)-N-(3-(2-morpholinothiazol-5-yl)phenyl)cyclohexanecarboxamide], the EC50 is no more than 250 nM.

As to `COc1ccc([C@H]2CC[C@H](CN(c3cccc(-c4cnc(C5CCC5)s4)c3)C(=O)[C@H]3CC[C@H](O)CC3)CC2)cc1C` [Compound 7.08, trans-N-(3-(2-Cyclobutylthiazol-5-yl)phenyl)-4-hydroxy-N-((trans-4-(4-methoxy-3-methylphenyl)cyclohexyl)methyl) cyclohexanecarboxamide], the EC50 was no more than 250 nM.

`CCO[C@H]1CC[C@H](C(=O)N(C[C@H]2CC[C@H](c3ccc(OC)c(C)c3)CC2)c2cccc(-c3cnc(OC)s3)c2)CC1` [Compound 4, trans-4-Ethoxy-N-((trans-4-(4-methoxy-3-methylphenyl)cyclohexyl)methyl)-N-(3-(2-methoxythiazol-5-yl)phenyl)cyclohexanecarboxamide]: the EC50 fell in the range of 250 to 1000 nM.

Turning to `COc1ccc([C@H]2CC[C@H](CN(c3cccc(C#Cc4ncc(C)s4)c3)C(=O)[C@H]3CC[C@H](O)CC3)CC2)cc1C` [Compound 8.02, trans-4-Hydroxy-N-((trans-4-(4-methoxy-3-methylphenyl)cyclohexyl)methyl)-N-(3-((5-methylthiazol-2-yl)ethynyl)phenyl)cyclohexanecarboxamide], the EC50 is no more than 250 nM.

`COc1ccc([C@H]2CC[C@H](CN(c3cccc(C#Cc4cncs4)c3)C(=O)[C@H]3CC[C@H](O)CC3)CC2)cc1C` [Compound 8.01, trans-4-Hydroxy-N-((trans-4-(4-methoxy-3-methylphenyl)cyclohexyl)methyl)-N-(3-(thiazol-5-ylethynyl)phenyl)cyclohexanecarboxamide] gave a half-maximal effective concentration (EC50) of no more than 250 nM.

`COc1ncc(-c2cccc(N(C[C@H]3CC[C@H](c4ccc(OC)c(C)c4)CC3)C(=O)C3CCCCC3)c2)s1` [Compound 1.01, N-((trans-4-(4-Methoxy-3-methylphenyl)cyclohexyl)methyl)-N-(3-(2-methoxythiazol-5-yl)phenyl)cyclohexanecarboxamide] registered an EC50 of no more than 250 nM.

`COc1ncc(-c2cccc(N(C[C@H]3CC[C@H](c4ccc(OC)c(C#N)c4)CC3)C(=O)[C@H]3CC[C@H](O)CC3)c2)s1` [Compound 9.06, trans-N-((trans-4-(3-Cyano-4-methoxyphenyl)cyclohexyl)methyl)-4-hydroxy-N-(3-(2-methoxythiazol-5-yl)phenyl)cyclohexanecarboxamide]: the EC50 is no more than 250 nM.

`COc1ccc([C@H]2CC[C@H](CN(c3cccc(-c4cnc(N5CCCCC5)s4)c3)C(=O)[C@H]3CC[C@H](O)CC3)CC2)cc1C` [Compound 7.14, trans-4-Hydroxy-N-((trans-4-(4-methoxy-3-methylphenyl)cyclohexyl)methyl)-N-(3-(2-(piperidin-1-yl)thiazol-5-yl)phenyl)cyclohexanecarboxamide] gave an EC50 of no more than 250 nM.

For the compound `COc1ncc(-c2cccc(N(C[C@H]3CC[C@H](c4ccc5c(c4)OCO5)CC3)C(=O)[C@H]3CC[C@H](O)CC3)c2)s1` [Compound 9.14, trans-N-((trans-4-(Benzo[d][1,3]dioxol-5-yl)cyclohexyl)methyl)-4-hydroxy-N-(3-(2-methoxythiazol-5-yl)phenyl)cyclohexanecarboxamide], the EC50 is no more than 250 nM.

`COc1ncc(-c2cccc(N(C[C@H]3CC[C@H](c4ccc(OC)c(C)c4)CC3)C(=O)[C@H]3CC[C@H](N)CC3)c2)s1` [Compound 13.01, trans-4-Amino-N-((trans-4-(4-methoxy-3-methylphenyl)cyclohexyl)methyl)-N-(3-(2-methoxythiazol-5-yl)phenyl)cyclohexanecarboxamide] returned an EC50 of no less than 1000 nM.

`COc1ccc([C@H]2CC[C@H](CN(c3cccc(C#Cc4nc(C)cs4)c3)C(=O)[C@H]3CC[C@H](O)CC3)CC2)cc1C` [Compound 8.03, trans-4-Hydroxy-N-((trans-4-(4-methoxy-3-methylphenyl)cyclohexyl)methyl)-N-(3-((4-methylthiazol-2-yl)ethynyl)phenyl)cyclohexanecarboxamide] showed an EC50 of no more than 250 nM.

Regarding `COc1ccc([C@H]2CC[C@H](CN(c3cccc(-c4cnc(C(=O)O)s4)c3)C(=O)[C@H]3CC[C@H](O)CC3)CC2)cc1C` [Compound 7.28, 5-(3-(trans-4-Hydroxy-N-((trans-4-(4-methoxy-3-methylphenyl)cyclohexyl)methyl)cyclohexanecarboxamido)phenyl)thiazole-2-carboxylic acid], the concentration for a half-maximal effect (EC50) was no less than 1000 nM.

Consider `COc1cnc([C@H]2CC[C@H](CN(c3cccc(-c4cnc(C5CC5)s4)c3)C(=O)[C@H]3CC[C@H](O)CC3)CC2)cc1C` [Compound 9.24, trans-N-(3-(2-Cyclopropylthiazol-5-yl)phenyl)-4-hydroxy-N-((trans-4-(5-methoxy-4-methylpyridin-2-yl)cyclohexyl)methyl)cyclohexanecarboxamide], for which the EC50 lay in the range of 250 to 1000 nM.
